According to ChEMBL document CHEMBL1142186, “Multistep resistance selection and postantibiotic-effect studies of the antipneumococcal activity of LBM415 compared to other agents” (2007):
Converted amounts (≈) assume the structure as drawn.

Assays:
Streptococcus pneumoniae [1] = assay: Antibacterial activity against moxifloxacin resistance selected Streptococcus pneumoniae 1076 with ParC S79Y mutation after 10 antibiotic-free subcultures by macrodilution method; format: functional
Streptococcus pneumoniae [2] = assay: Antibacterial activity against clarithromycin resistance selected Streptococcus pneumoniae 3243 with 23S rRNA A2059T mutation after 10 antibiotic-free subcultures by macrodilution method; format: functional
Streptococcus pneumoniae [3] = assay: Antibacterial activity against azithromycin resistance selected Streptococcus pneumoniae 3243 with L22 insertion 93SFRPRA94 mutation after 10 antibiotic-free subcultures by macrodilution method; format: functional
Streptococcus pneumoniae [4] = assay: Antibacterial activity against Streptococcus pneumoniae 3243 by macrodilution method; format: functional
Streptococcus pneumoniae [5] = assay: Antibacterial activity against levofloxacin resistance selected Streptococcus pneumoniae 19 with GyrA S81Y and ParC D83Y mutation after 10 antibiotic-free subcultures by macrodilution method; format: functional
Streptococcus pneumoniae [6] = assay: Antibacterial activity against moxifloxacin resistance selected Streptococcus pneumoniae 24 with GyrA S81Y, GyrB P413S and ParC S79F mutation after 10 antibiotic-free subcultures by macrodilution method; format: functional
Streptococcus pneumoniae [7] = assay: Antibacterial activity against levofloxacin resistance selected Streptococcus pneumoniae 3009 with GyrA S81Y and ParC S79Y mutation after 10 antibiotic-free subcultures by macrodilution method; format: functional
Streptococcus pneumoniae [8] = assay: Antibacterial activity against moxifloxacin resistance selected Streptococcus pneumoniae 3665 with GyrA S81Y mutation after 10 antibiotic-free subcultures by macrodilution method; format: functional
Streptococcus pneumoniae [9] = assay: Antibacterial activity against moxifloxacin resistance selected Streptococcus pneumoniae 3009 with GyrA S81F and ParC D83N mutation after 10 antibiotic-free subcultures by macrodilution method; format: functional
Streptococcus pneumoniae [10] = assay: Antibacterial activity against Streptococcus pneumoniae 1077 by macrodilution method; format: functional
Streptococcus pneumoniae [11] = assay: Antibacterial activity against moxifloxacin resistance selected Streptococcus pneumoniae 19 with GyrA S81F mutation after 10 antibiotic-free subcultures by macrodilution method; format: functional
Streptococcus pneumoniae [12] = assay: Antibacterial activity against gatifloxacin resistance selected Streptococcus pneumoniae 3009 after 10 antibiotic-free subcultures by macrodilution method; format: functional
Streptococcus pneumoniae [13] = assay: Antibacterial activity against clarithromycin resistance selected Streptococcus pneumoniae 3676 after 10 antibiotic-free subcultures by macrodilution method; format: functional
Streptococcus pneumoniae [14] = assay: Antibacterial activity against azithromycin resistance selected Streptococcus pneumoniae 2527 after 20 passages by macrodilution method; format: functional
Streptococcus pneumoniae [15] = assay: Antibacterial activity against azithromycin resistance selected Streptococcus pneumoniae 1077 with 23S rRNA A2058G mutation after 29 passages by macrodilution method; format: functional
Streptococcus pneumoniae [16] = assay: Antibacterial activity against azithromycin resistance selected Streptococcus pneumoniae 1077 with 23S rRNA A2058G mutation after 10 antibiotic-free subcultures by macrodilution method; format: functional
Streptococcus pneumoniae [17] = assay: Antibacterial activity against Streptococcus pneumoniae assessed as period of suppression of bacterial growth; format: functional
Streptococcus pneumoniae [18] = assay: Antibacterial activity against Streptococcus pneumoniae 2527 by macrodilution method; format: functional
Streptococcus pneumoniae [19] = assay: Antibacterial activity against gatifloxacin resistance selected Streptococcus pneumoniae 37 with GyrA S81Y, GyrB E474K and ParC S79Y mutation after 10 antibiotic-free subcultures by macrodilution method; format: functional
Streptococcus pneumoniae [20] = assay: Antibacterial activity against moxifloxacin resistance selected Streptococcus pneumoniae 3676 with GyrA E85G, GyrB S478I and ParC S79Y mutation after 10 antibiotic-free subcultures by macrodilution method; format: functional
Streptococcus pneumoniae [21] = assay: Antibacterial activity against moxifloxacin resistance selected Streptococcus pneumoniae 3243 after 10 antibiotic-free subcultures by macrodilution method; format: functional
Streptococcus pneumoniae [22] = assay: Antibacterial activity against clarithromycin resistance selected Streptococcus pneumoniae 3665 after 10 antibiotic-free subcultures by macrodilution method; format: functional
Streptococcus pneumoniae [23] = assay: Antibacterial activity against azithromycin resistance selected Streptococcus pneumoniae 2527 after 10 antibiotic-free subcultures by macrodilution method; format: functional
Streptococcus pneumoniae [24] = assay: Antibacterial activity against clarithromycin resistance selected Streptococcus pneumoniae 3009 after 10 antibiotic-free subcultures by macrodilution method; format: functional
Streptococcus pneumoniae [25] = assay: Antibacterial activity against gatifloxacin resistance selected Streptococcus pneumoniae 1076 with ParC S79Y mutation after 10 antibiotic-free subcultures by macrodilution method; format: functional
Streptococcus pneumoniae [26] = assay: Antibacterial activity against azithromycin resistance selected Streptococcus pneumoniae 3243 with L22 insertion 93SFRPRA94 mutation after 33 passages by macrodilution method; format: functional
Streptococcus pneumoniae [27] = assay: Antibacterial activity against gatifloxacin resistance selected Streptococcus pneumoniae 3009 after 14 passages by macrodilution method; format: functional
Streptococcus pneumoniae [28] = assay: Antibacterial activity against gatifloxacin resistance selected Streptococcus pneumoniae 1076 with ParC S79Y mutation after 20 passages by macrodilution method; format: functional
Streptococcus pneumoniae [29] = assay: Antibacterial activity against Streptococcus pneumoniae 1076 by macrodilution method; format: functional
Streptococcus pneumoniae [30] = assay: Antibacterial activity against Streptococcus pneumoniae 3009 by macrodilution method; format: functional
Streptococcus pneumoniae [31] = assay: Antibacterial activity against gatifloxacin resistance selected Streptococcus pneumoniae 37 with GyrA S81Y, GyrB E474K and ParC S79Y mutation after 14 passages by macrodilution method; format: functional
Streptococcus pneumoniae [32] = assay: Antibacterial activity against Streptococcus pneumoniae 37 by macrodilution method; format: functional
Streptococcus pneumoniae [33] = assay: Antibacterial activity against moxifloxacin resistance selected Streptococcus pneumoniae 3009 with GyrA S81F and ParC D83N mutation after 19 passages by macrodilution method; format: functional
Streptococcus pneumoniae [34] = assay: Antibacterial activity against moxifloxacin resistance selected Streptococcus pneumoniae 3243 after 20 passages by macrodilution method; format: functional
Streptococcus pneumoniae [35] = assay: Antibacterial activity against moxifloxacin resistance selected Streptococcus pneumoniae 3665 with GyrA S81Y mutation after 38 passages by macrodilution method; format: functional
Streptococcus pneumoniae [36] = assay: Antibacterial activity against moxifloxacin resistance selected Streptococcus pneumoniae 19 with GyrA S81F mutation after 32 passages by macrodilution method; format: functional
Streptococcus pneumoniae [37] = assay: Antibacterial activity against moxifloxacin resistance selected Streptococcus pneumoniae 1076 with ParC S79Y mutation after 35 passages by macrodilution method; format: functional
Streptococcus pneumoniae [38] = assay: Antibacterial activity against moxifloxacin resistance selected Streptococcus pneumoniae 3676 with GyrA E85G, GyrB S478I and ParC S79Y mutation after 50 passages by macrodilution method; format: functional
Streptococcus pneumoniae [39] = assay: microbe, parasite or virus in culture

In the case of `CC[C@H]1OC(=O)[C@H](C)[C@@H](O[C@H]2C[C@@](C)(OC)[C@@H](O)[C@H](C)O2)[C@H](C)[C@@H](O[C@@H]2O[C@H](C)C[C@H](N(C)C)[C@H]2O)[C@](C)(O)C[C@@H](C)CN(C)[C@H](C)[C@@H](O)[C@]1(C)O` [AZITHROMYCIN], the MIC (Streptococcus pneumoniae [1]) was > 128 µg/mL, the MIC (Streptococcus pneumoniae [2]) was 1 µg/mL (≈ 1.34 µM) and the MIC (Streptococcus pneumoniae [3]) was 0.5 µg/mL (≈ 0.668 µM). The MIC (Streptococcus pneumoniae [4]) was 0.03 µg/mL (≈ 0.0401 µM), the MIC (Streptococcus pneumoniae [5]) was > 128 µg/mL and the MIC (Streptococcus pneumoniae [6]) was > 128 µg/mL. The MIC (Streptococcus pneumoniae [7]) was 128 µg/mL (≈ 171 µM), the MIC (Streptococcus pneumoniae [8]) was 8 µg/mL (≈ 10.7 µM) and the MIC (Streptococcus pneumoniae [9]) was > 128 µg/mL. For the same molecule, the MIC (Streptococcus pneumoniae [10]) was 0.03 µg/mL (≈ 0.0401 µM), the MIC (Streptococcus pneumoniae [11]) was > 128 µg/mL and the MIC (Streptococcus pneumoniae [12]) was > 128 µg/mL. For the same molecule, the MIC (Streptococcus pneumoniae [13]) was 16 µg/mL (≈ 21.4 µM), the MIC (Streptococcus pneumoniae [14]) was 4 µg/mL (≈ 5.34 µM) and the MIC (Streptococcus pneumoniae [15]) was > 64 µg/mL. For the same molecule, the MIC (Streptococcus pneumoniae [16]) was > 64 µg/mL, the “Post Antibiotic Effe” value (Streptococcus pneumoniae [17]) was 3.1 h and the MIC (Streptococcus pneumoniae [18]) was 0.016 µg/mL (≈ 0.0214 µM). For the same molecule, the MIC (Streptococcus pneumoniae [19]) was > 128 µg/mL, the MIC (Streptococcus pneumoniae [20]) was 4 µg/mL (≈ 5.34 µM) and the MIC (Streptococcus pneumoniae [21]) was 0.016 µg/mL (≈ 0.0214 µM). It also gave an MIC (Streptococcus pneumoniae [22]) of 8 µg/mL (≈ 10.7 µM), an MIC (Streptococcus pneumoniae [23]) of 4 µg/mL (≈ 5.34 µM) and an MIC (Streptococcus pneumoniae [24]) of 128 µg/mL (≈ 171 µM). The MIC (Streptococcus pneumoniae [25]) was > 128 µg/mL and the MIC (Streptococcus pneumoniae [26]) was 0.25 µg/mL (≈ 0.334 µM).

`COc1c(N2CCNC(C)C2)c(F)cc2c(=O)c(C(=O)O)cn(C3CC3)c12` (stereo not given) [GATIFLOXACIN] was tested, and the MIC (Streptococcus pneumoniae [1]) was 8 µg/mL (≈ 21.3 µM), the MIC (Streptococcus pneumoniae [2]) was 0.25 µg/mL (≈ 0.666 µM) and the MIC (Streptococcus pneumoniae [3]) was 0.25 µg/mL (≈ 0.666 µM). It also gave an MIC (Streptococcus pneumoniae [27]) of 16 µg/mL (≈ 42.6 µM), an MIC (Streptococcus pneumoniae [5]) of 4 µg/mL (≈ 10.7 µM) and an MIC (Streptococcus pneumoniae [28]) of 16 µg/mL (≈ 42.6 µM). It also gave an MIC (Streptococcus pneumoniae [6]) of 4 µg/mL (≈ 10.7 µM), an MIC (Streptococcus pneumoniae [7]) of 8 µg/mL (≈ 21.3 µM) and an MIC (Streptococcus pneumoniae [8]) of 0.5 µg/mL (≈ 1.33 µM). It also gave an MIC (Streptococcus pneumoniae [9]) of 2 µg/mL (≈ 5.33 µM), an MIC (Streptococcus pneumoniae [29]) of 2 µg/mL (≈ 5.33 µM) and an MIC (Streptococcus pneumoniae [11]) of 0.5 µg/mL (≈ 1.33 µM). For the same molecule, the MIC (Streptococcus pneumoniae [12]) was 8 µg/mL (≈ 21.3 µM), the MIC (Streptococcus pneumoniae [13]) was 0.5 µg/mL (≈ 1.33 µM) and the MIC (Streptococcus pneumoniae [30]) was 1 µg/mL (≈ 2.66 µM). For the same molecule, the MIC (Streptococcus pneumoniae [16]) was 8 µg/mL (≈ 21.3 µM), the “Post Antibiotic Effe” value (Streptococcus pneumoniae [17]) was 1.7 h and the MIC (Streptococcus pneumoniae [19]) was 16 µg/mL (≈ 42.6 µM). The MIC (Streptococcus pneumoniae [31]) was 16 µg/mL (≈ 42.6 µM), the MIC (Streptococcus pneumoniae [20]) was 2 µg/mL (≈ 5.33 µM) and the MIC (Streptococcus pneumoniae [21]) was 1 µg/mL (≈ 2.66 µM). It also gave an MIC (Streptococcus pneumoniae [22]) of 0.25 µg/mL (≈ 0.666 µM), an MIC (Streptococcus pneumoniae [23]) of 8 µg/mL (≈ 21.3 µM) and an MIC (Streptococcus pneumoniae [24]) of 0.25 µg/mL (≈ 0.666 µM). It also gave an MIC (Streptococcus pneumoniae [25]) of 8 µg/mL (≈ 21.3 µM) and an MIC (Streptococcus pneumoniae [32]) of 1 µg/mL (≈ 2.66 µM).

`COc1c(N2C[C@@H]3CCCN[C@@H]3C2)c(F)cc2c(=O)c(C(=O)O)cn(C3CC3)c12` [MOXIFLOXACIN] was tested, and the MIC (Streptococcus pneumoniae [33]) was 2 µg/mL (≈ 4.98 µM), the MIC (Streptococcus pneumoniae [34]) was 1 µg/mL (≈ 2.49 µM) and the MIC (Streptococcus pneumoniae [7]) was 4 µg/mL (≈ 9.96 µM). The MIC (Streptococcus pneumoniae [29]) was 1 µg/mL (≈ 2.49 µM), the MIC (Streptococcus pneumoniae [35]) was 1 µg/mL (≈ 2.49 µM) and the MIC (Streptococcus pneumoniae [11]) was 2 µg/mL (≈ 4.98 µM). For the same molecule, the MIC (Streptococcus pneumoniae [36]) was 1 µg/mL (≈ 2.49 µM), the “Post Antibiotic Effe” value (Streptococcus pneumoniae [17]) was 1.5 h and the MIC (Streptococcus pneumoniae [19]) was 16 µg/mL (≈ 39.9 µM). It also gave an MIC (Streptococcus pneumoniae [37]) of 8 µg/mL (≈ 19.9 µM), an MIC (Streptococcus pneumoniae [20]) of 8 µg/mL (≈ 19.9 µM) and an MIC (Streptococcus pneumoniae [38]) of 8 µg/mL (≈ 19.9 µM). The MIC (Streptococcus pneumoniae [39]) was 4 µg/mL (≈ 9.96 µM).
